Source: patent publication US20010041737A1, “Enhancing the toxicity of warfarin in rodents” (priority 1998, published 2001)
Counter-ions that a name gives are not always drawn.

System: warfarin-resistant Norway rats from Chicago, Illinois
Test: Example II: feeding test of 50 ppm warfarin bait with or without antibiotic
Format: in vivo
Details: conclusion in words from the Example II mortality figures

With `CN(C)[C@@H]1C(O)=C(C(N)=O)C(=O)[C@@]2(O)C(O)=C3C(=O)c4c(O)cccc4[C@@](C)(O)[C@H]3C[C@@H]12` [tetracycline hydrochloride] the “Effect of the antibiotic on the toxicity of warfarin” value was “appears to enhance the toxicity of warfarin”.
